Laboratory results taken from patent US20190248765A1, “COMPOUNDS, COMPOSITIONS, AND METHODS FOR INCREASING CFTR ACTIVITY” (Proteostasis Therapeutics, Inc., priority 2016, published 2019).

Target: T1, ΔF508-CFTR (Homo sapiens, UniProt P13569, DEL508-508)
T1 construct: Primary lung epithelial cells homozygous for the Cystic Fibrosis-causing ΔF508 mutation were differentiated; endogenous in cells; host or cells: primary human lung/bronchial epithelial cells (hBE) homozygous for ΔF508, differentiated at an air-liquid interface
T1 sequence (P13569 with tags, fused parts or gaps DEL508-508): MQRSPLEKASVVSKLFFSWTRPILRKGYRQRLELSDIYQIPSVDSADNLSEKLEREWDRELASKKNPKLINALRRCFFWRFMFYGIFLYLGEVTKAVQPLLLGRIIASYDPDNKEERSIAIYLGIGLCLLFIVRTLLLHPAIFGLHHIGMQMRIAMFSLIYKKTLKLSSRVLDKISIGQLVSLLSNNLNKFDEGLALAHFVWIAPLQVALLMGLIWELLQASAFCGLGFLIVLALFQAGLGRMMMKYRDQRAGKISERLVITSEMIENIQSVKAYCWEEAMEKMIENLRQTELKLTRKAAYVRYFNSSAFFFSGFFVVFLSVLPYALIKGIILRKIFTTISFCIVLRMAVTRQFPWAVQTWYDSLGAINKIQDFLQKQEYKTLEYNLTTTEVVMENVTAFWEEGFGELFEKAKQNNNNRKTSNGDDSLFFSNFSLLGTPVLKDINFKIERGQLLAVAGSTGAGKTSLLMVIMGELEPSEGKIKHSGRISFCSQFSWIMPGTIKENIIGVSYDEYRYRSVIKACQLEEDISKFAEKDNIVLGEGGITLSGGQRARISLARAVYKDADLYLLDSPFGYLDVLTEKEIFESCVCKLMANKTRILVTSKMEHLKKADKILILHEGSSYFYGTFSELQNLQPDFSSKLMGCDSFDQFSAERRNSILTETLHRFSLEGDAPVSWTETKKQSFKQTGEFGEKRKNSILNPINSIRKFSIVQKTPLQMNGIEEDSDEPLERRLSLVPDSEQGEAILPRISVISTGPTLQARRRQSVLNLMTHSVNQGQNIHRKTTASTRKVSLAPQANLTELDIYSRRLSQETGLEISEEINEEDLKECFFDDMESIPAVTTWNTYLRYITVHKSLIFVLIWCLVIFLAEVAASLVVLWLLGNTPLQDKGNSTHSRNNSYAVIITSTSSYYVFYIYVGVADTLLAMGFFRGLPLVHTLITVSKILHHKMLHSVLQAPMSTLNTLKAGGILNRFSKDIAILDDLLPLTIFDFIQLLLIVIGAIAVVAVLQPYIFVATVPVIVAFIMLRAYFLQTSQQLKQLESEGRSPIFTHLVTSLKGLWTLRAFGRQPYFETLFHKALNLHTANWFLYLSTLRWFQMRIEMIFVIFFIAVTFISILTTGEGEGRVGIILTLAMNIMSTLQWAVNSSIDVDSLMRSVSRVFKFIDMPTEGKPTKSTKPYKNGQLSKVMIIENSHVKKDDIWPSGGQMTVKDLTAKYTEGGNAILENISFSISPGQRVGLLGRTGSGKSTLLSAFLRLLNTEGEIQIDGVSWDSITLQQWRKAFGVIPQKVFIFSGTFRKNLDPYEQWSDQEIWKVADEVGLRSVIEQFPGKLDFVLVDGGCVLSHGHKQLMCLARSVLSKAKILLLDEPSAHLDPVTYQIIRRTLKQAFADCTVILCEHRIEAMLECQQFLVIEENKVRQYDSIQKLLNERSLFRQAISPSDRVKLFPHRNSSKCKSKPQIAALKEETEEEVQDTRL
Assay: hBE Equivalent Current (Ieq) Assay
Format: cell-based
Settings: Compound A at 3 uM, primary lung epithelial cells homozygous for ΔF508, 24 hours treatment
Procedure: ii. hBE Equivalent Current (Ieq) Assay
Primary lung epithelial cells homozygous for the Cystic Fibrosis-causing ΔF508 mutation were differentiated for a minimum of 4 weeks in an air-liquid interface on Costar 24 well HTS filter plates prior to the equivalent current (Ieq) measurements. Cells were apically mucus-washed for 30 minutes 24 h prior to treatment with compounds. The basolateral media was removed and replaced with media containing the compound of interest diluted to its final concentration from DMSO stocks. Treated cells were incubated at 37° C. and 5% CO2 for 24 hours. At the end of the treatment period, the media was changed to the Ieq experimental solution for 2 hours before the experiment and plates are maintained in a CO2-free incubator during this period. The plates containing the cells were then placed in pre-warmed heating blocks at 36° C.±0.5 for 15 minutes before measurements are taken. The transepithelial voltage (VT) and conductance (GT) were measured using a custom 24 channel current clamp (TECC-24) with 24 well electrode manifold. The Ieq assay measurements were made following additions with standardized time periods:
1. The baseline VT and GT values were measured for approximately 20 minutes.
2. Benzamil was added to block ENaC for 15 minutes.
3. Forskolin plus VX-770 were added to maximally activate ΔF508-CFTR for 27 minutes.
4. Bumetanide was added to inhibit the NaK2Cl cotransporter and shut-off secretion of chloride.
The activity data captured was the area under the curve (AUC) for the traces of the equivalent chloride current. The AUC was collected from the time of the forskolin/VX-770 addition until the inhibition by bumetanide addition. Correction in response to compound treatment was scored as the increase in the AUC for compound-treated samples over that of vehicle-treated samples.
(+ indicates activity<150% of a CFTR amplifier (Compound A) with compound at concentration shown and Compound A at 3 uM; ++ indicates activity>150% of a CFTR amplifier with compound at concentration shown and Compound A at 3 uM.

| Structure (SMILES) | Activity (AUC of equivalent chloride current, relative to CFTR amplifier Compound A) (compound at 3 μM) | Activity (AUC of equivalent chloride current, relative to CFTR amplifier Compound A) (compound at 10 μM) |
| --- | --- | --- |
| COc1cccc(-c2ccc(=O)n(C(C)c3nc4cc(Cl)ccc4[nH]3)n2)c1 (stereo not shown) [Compound 5, 2-(1-(5-Chloro-1H-benzo[d]imidazol-2-yl)ethyl)-6-(3-methoxyphenyl)pyridazin-3(2H)-one] | + (activity<150% of a CFTR amplifier (Compound A) with compound at concentration shown and Compound A at 3 uM) | + (activity<150% of a CFTR amplifier (Compound A) with compound at concentration shown and Compound A at 3 uM) |
| COc1cccc(-c2ccc(=O)n(C(C)c3nc4cc(C(F)(F)F)ccc4[nH]3)n2)c1 (stereo not shown) [Compound 3, 6-(3-Methoxyphenyl)-2-(1-(5-(trifluoromethyl)-1H-benzo[d]imidazol-2-yl)ethyl)pyridazin-3(2H)-one] | ++ (activity>150% of a CFTR amplifier with compound at concentration shown and Compound A at 3 uM) | ++ (activity>150% of a CFTR amplifier with compound at concentration shown and Compound A at 3 uM) |
| COc1cccc(-c2ccc(=O)n(C(C)c3nnc(-c4cccc(C(F)(F)F)c4)[nH]3)n2)c1 (stereo not shown) [Compound 13, 6-(3-Methoxyphenyl)-2-(1-(5-(3-(trifluoromethyl)phenyl)-4H-1,2,4-triazol-3-yl)ethyl)pyridazin-3(2H)-one] | – | + (activity<150% of a CFTR amplifier (Compound A) with compound at concentration shown and Compound A at 3 uM) |
| COc1cccc(-c2ccc(=O)n(C(C)c3nc4ccccc4[nH]3)n2)c1 (stereo not shown) [Compound 2, 2-[1-(1H-1,3-benzodiazol-2-yl)ethyl]-6-(3-methoxyphenyl)-2,3-dihydropyridazin-3-one] | – | + (activity<150% of a CFTR amplifier (Compound A) with compound at concentration shown and Compound A at 3 uM) |
| COc1cccc(-c2ccc(=O)n(C(C)c3nc4nc(C(F)(F)F)ccc4[nH]3)n2)c1 (stereo not shown) [Compound 7, 6-(3-Methoxyphenyl)-2-(1-(5-(trifluoromethyl)-1H-imidazo[4,5-b]pyridin-2-yl)ethyl)pyridazin-3(2H)-one] | + (activity<150% of a CFTR amplifier (Compound A) with compound at concentration shown and Compound A at 3 uM) | + (activity<150% of a CFTR amplifier (Compound A) with compound at concentration shown and Compound A at 3 uM) |
| COc1cccc(-c2ccc(=O)n(C(C)c3nc4cc(C(C)(C)C)ccc4[nH]3)n2)c1 (stereo not shown) [Compound 4, 2-(1-(5-(tert-Butyl)-1H-benzo[d]imidazol-2-yl)ethyl)-6-(3-methoxyphenyl)pyridazin-3(2H)-one] | + (activity<150% of a CFTR amplifier (Compound A) with compound at concentration shown and Compound A at 3 uM) | + (activity<150% of a CFTR amplifier (Compound A) with compound at concentration shown and Compound A at 3 uM) |
| COc1cccc(-c2ccc(=O)n(C(C)c3nc4cc(C(F)(F)F)cnc4[nH]3)n2)c1 (stereo not shown) [Compound 8, 6-(3-Methoxyphenyl)-2-(1-(6-(trifluoromethyl)-3H-imidazo[4,5-b]pyridin-2-yl)ethyl)pyridazin-3(2H)-one] | + (activity<150% of a CFTR amplifier (Compound A) with compound at concentration shown and Compound A at 3 uM) | + (activity<150% of a CFTR amplifier (Compound A) with compound at concentration shown and Compound A at 3 uM) |
| CC(c1nc2cc(C(F)(F)F)ccc2[nH]1)n1nc(-c2cccc(Cl)c2)ccc1=O (stereo not shown) [Compound 6, 6-(3-Chlorophenyl)-2-(1-(5-(trifluoromethyl)-1H-benzo[d]imidazol-2-yl)ethyl)pyridazin-3(2H)-one] | ++ (activity>150% of a CFTR amplifier with compound at concentration shown and Compound A at 3 uM) | ++ (activity>150% of a CFTR amplifier with compound at concentration shown and Compound A at 3 uM) |
| COc1cccc(-c2ccc(=O)n(C(C)c3nnc(-c4ccc(C(F)(F)F)cc4)[nH]3)n2)c1 (stereo not shown) [Compound 12, 6-(3-Methoxyphenyl)-2-(1-(5-(4-(trifluoromethyl)phenyl)-4H-1,2,4-triazol-3-yl)ethyl)pyridazin-3(2H)-one] | – | + (activity<150% of a CFTR amplifier (Compound A) with compound at concentration shown and Compound A at 3 uM) |
| COc1cccc(-c2ccc(=O)n(C(C)c3nnc(-c4ccccc4)[nH]3)n2)c1 (stereo not shown) [Compound 11, 6-(3-Methoxyphenyl)-2-[1-(5-phenyl-4H-1,2,4-triazol-3-yl)ethyl]-2,3-dihydropyridazin-3-one] | – | + (activity<150% of a CFTR amplifier (Compound A) with compound at concentration shown and Compound A at 3 uM) |
| COc1cccc(-c2ccc(=O)n(C(C)c3nc4cc(Cl)c(Cl)cc4[nH]3)n2)c1 (stereo not shown) [Compound 9, 2-(1-(5,6-Dichloro-1H-benzo[d]imidazol-2-yl)ethyl)-6-(3-methoxyphenyl)pyridazin-3(2H)-one] | ++ (activity>150% of a CFTR amplifier with compound at concentration shown and Compound A at 3 uM) | ++ (activity>150% of a CFTR amplifier with compound at concentration shown and Compound A at 3 uM) |
| COc1cccc(-c2ccc(=O)n(C(C)c3nc4ccccc4o3)n2)c1 (stereo not shown) [Compound 1, 2-[1-(1,3-benzoxazol-2-yl)ethyl]-6-(3-methoxyphenyl)-2,3-dihydropyridazin-3-one] | + (activity<150% of a CFTR amplifier (Compound A) with compound at concentration shown and Compound A at 3 uM) | + (activity<150% of a CFTR amplifier (Compound A) with compound at concentration shown and Compound A at 3 uM) |
| CC(c1nc2cc(Cl)c(Cl)cc2[nH]1)n1nc(-c2cccc(Cl)c2)ccc1=O (stereo not shown) [Compound 10, 6-(3-Chlorophenyl)-2-(1-(5,6-dichloro-1H-benzo[d]imidazol-2-yl)ethyl)pyridazin-3(2H)-one] | + (activity<150% of a CFTR amplifier (Compound A) with compound at concentration shown and Compound A at 3 uM) | + (activity<150% of a CFTR amplifier (Compound A) with compound at concentration shown and Compound A at 3 uM) |
